Values quoted from earlier work in patent US7198796B2, “Antifungal parenteral products” (Vicuron Pharmaceuticals Inc., priority 2002, dated 2007).
*1 amine or outer side, *2 acyl side, *3 side chain or, on linkers, in order; H or OH if unused. Where a SMILES comes first, the peptide text is derived from it. Bridges are numbered along the chain shown (N, C = ends). [ ]: non-standard residue; d: D form. The star is where a group is joined. ξ: configuration not given here. pTerphenylCO(4''-OnC5H11) = CCCCCOc1ccc(-c2ccc(-c3ccc(C(=O)*)cc3)cc2)cc1; ξOrn(4R-OH,5R-OH) = O=C(C(C[C@@H](O)[C@@H](O)N[*:3])N[*:1])[*:2]; hTyr(3S-OH,4S-OH) = N[C@H](C(=O)O)[C@H](O)[C@@H](O)c1ccc(O)cc1; Pro(3S-OH,4S-Me) = C[C@H]1CN[C@H](C(=O)O)[C@H]1O; Hyp = O=C(O)[C@@H]1C[C@@H](O)CN1

In the case of `CCCCCOc1ccc(-c2ccc(-c3ccc(C(=O)NC4C[C@@H](O)[C@@H](O)NC(=O)[C@@H]5[C@@H](O)[C@@H](C)CN5C(=O)[C@H]([C@@H](C)O)NC(=O)[C@H]([C@H](O)[C@@H](O)c5ccc(O)cc5)NC(=O)[C@@H]5C[C@@H](O)CN5C(=O)[C@H]([C@@H](C)O)NC4=O)cc3)cc2)cc1` (stereo partly drawn) [anidulafungin, 1-[(4R,5R)-4,5-Dihydroxy-N(2)-[[4″-(pentyloxy)[1,1′:4′,1″-terphenyl]-4-yl]carbonyl]-L-ornithine]echinocandin B] ({pTerphenylCO(4''-OnC5H11)}-[ξOrn(4R-OH,5R-OH)]T[Hyp][hTyr(3S-OH,4S-OH)]T[Pro(3S-OH,4S-Me)]; lactam 1-C), the water solubility is given as “less than 0.1 mg/ml”.
